Here are results for two compounds from patent US7041686B2, “Substituted imidazoles useful in the treatment of inflammatory diseases” (priority 2000, dated 2006).

Molecules are shown by their SMILES.

One may read the IC50 as the concentration needed to halve the response being measured. Read a low IC50 as greater potency in that assay. What is called inhibition is the percentage by which the read-out fell short of the control. Low readings indicate a weak effect, high ones a strong effect. The term melting point denotes the temperature, or range, at which the solid turns liquid.

In one series the test system is TNF-α. In words: LPS-induced TNF-α production in human PBMC, in vitro whole cell assay (ELISA). The format is cell-based. The note with it: LPS stimulation overnight, TNF-α by ELISA. How it is done:
Compounds of the invention were measured for their ability to inhibit the activity of p38 in an in vitro whole cell assay using peripheral blood mononuclear cells (“PBMC” ) obtained from human blood as follows. Freshly obtained venous blood was anticoagulated with heparin, diluted with an equal volume of phosphate buffered saline (“PBS” ) and placed in a sterile tube or other container. Aliquots (30 mL) of this mixture were transferred to centrifuge tubes which were underlaid with Ficoll-Hypaque (15 mL). The prepared tubes were centrifuged at 400×g without braking for 30 min at room temperature. Approximately ½ to ⅔ of the platelet layer above the mononuclear cell band was removed with a pipet. The majority of the mononuclear cell layer was carefully removed using a pipet and these PBMCs were diluted with PBS and spun at 600×g for 15 min. The resulting PBMCs were washed with another portion of PBS and spun at 400×g for 10 min at room temperature. The recovered pellets were diluted in low endotoxin RPMI/1% FCS culture medium and gave a cell concentration of 0.5–2.0×10^6 PMBC/mL. A small volume of the suspension was removed for counting on a hemocytometer and the remaining preparation was centrifuged at 200×g for 15 min at room temperature. The recovered pelleted PMBC were resuspended in RPMI/1% FCS to a concentration of 1.67×10^6/mL. […]
In general terms: An ELISA detects its analyte on a solid surface through an enzyme-linked reagent.

In a further series the test system is Mouse TNF-α. The experiment in a line: LPS induced TNF-α production, in vivo rodent assay (oral dosing, serum ELISA). The note with it: LPS 1 mg/kg i.p. 30 min after dosing, serum 1 h later; for inhibition at 10 mg/kg: oral 10 mg/kg; for inhibition at 25 mg/kg: oral 25 mg/kg. Here is the method: Mice (BALB/cJ females, Jackson Laboratories) or rats (Lewis males, Charles River) were fasted for 30 min prior to oral dosing with 5–10 mL/kg of test compound at 5–50 mg/kg. Thirty minutes after dosing, the animals were injected intraperitoneally with LPS at 1 mg/kg and returned to their cages for 1 h. Animals were anesthetized by CO2, exsanguinated by cardiac puncture and whole blood collected (0.1–0.7 mL). The blood was allowed to clot and serum was transferred to a centrifuge tube. This sample was centrifuged, serum was collected, aliquoted and frozen at −80 C. Samples were tested by commercial ELISAs for TNF-α (Endogen for mouse TNF-α and Biosource for rat TNF-α), resulting in data as shown in Table A.

Take `CN1CCC/C1=C\c1nc(-c2ccc(F)cc2)c(-c2ccncc2)n1CCCc1ccccc1` [Compound 1, 4-[4-(4-fluorophenyl)-2-[(E)-(1-methyl-2-pyrrolidinylidene)methyl]-1-(3-phenylpropyl)-1H-imidazol-5-yl]-pyridine]: the melting point lay in the range of 171 to 172 °C. In the series with TNF-α, this compound yielded an IC50 of 15 nM. In the series on Mouse TNF-α, this compound had an inhibition at 10 mg/kg of 77% and an inhibition at 25 mg/kg of 99%.
`CCN1CCC/C1=C\c1nc(-c2ccc(F)cc2)c(-c2ccncc2)n1CCCc1ccccc1` [Compound 2, 4-[4-(4-fluorophenyl)-2-[(E)-(1-ethyl-2-pyrrolidinylidene)methyl]-1-(3-phenylpropyl)-1H-imidazol-5-yl]-pyridine]: the melting point was in the range of 126.6 to 127.6 °C. The compound further displayed an IC50 with TNF-α of 17 nM. In addition, in the series with Mouse TNF-α, the inhibition at 10 mg/kg came to 89% and the inhibition at 25 mg/kg was found to be 98%.
